From ChEMBL document CHEMBL5233266, “β-Carboline as a Privileged Scaffold for Multitarget Strategies in Alzheimer's Disease Therapy” (J Med Chem, 2021)
Several values for one entry are separate records, joined by “and”; a condition that tells them apart may be missing. Equal entries are not always repeated.

Key:
[1] = biological target: Gamma-aminobutyric acid receptor subunit alpha-6 (Homo sapiens, UniProt Q16445); experiment: Binding affinity to human recombinant GABAA alpha6 receptor assessed as inhibition constant incubated for 1 hrs by liquid scintillation counting analysis
Sequence of Gamma-aminobutyric acid receptor subunit alpha-6 (Q16445 whole entry): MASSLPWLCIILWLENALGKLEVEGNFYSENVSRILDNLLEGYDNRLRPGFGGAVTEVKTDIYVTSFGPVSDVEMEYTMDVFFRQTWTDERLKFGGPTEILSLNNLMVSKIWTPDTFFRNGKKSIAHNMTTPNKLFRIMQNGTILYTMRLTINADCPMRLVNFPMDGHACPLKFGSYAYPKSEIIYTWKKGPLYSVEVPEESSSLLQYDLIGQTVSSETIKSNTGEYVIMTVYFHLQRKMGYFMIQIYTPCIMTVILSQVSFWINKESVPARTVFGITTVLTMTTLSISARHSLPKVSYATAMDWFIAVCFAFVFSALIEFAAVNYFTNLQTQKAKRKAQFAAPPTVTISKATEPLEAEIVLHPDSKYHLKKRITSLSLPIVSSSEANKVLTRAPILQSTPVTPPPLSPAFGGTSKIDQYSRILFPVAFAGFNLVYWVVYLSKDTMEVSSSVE

[2] = biological target: T1, Gamma-aminobutyric acid receptor subunit alpha-3 (Homo sapiens, UniProt P34903); experiment: Binding affinity to human recombinant GABAA alpha3 receptor assessed as inhibition constant incubated for 1 hrs by liquid scintillation counting analysis
T1 sequence (P34903 whole entry): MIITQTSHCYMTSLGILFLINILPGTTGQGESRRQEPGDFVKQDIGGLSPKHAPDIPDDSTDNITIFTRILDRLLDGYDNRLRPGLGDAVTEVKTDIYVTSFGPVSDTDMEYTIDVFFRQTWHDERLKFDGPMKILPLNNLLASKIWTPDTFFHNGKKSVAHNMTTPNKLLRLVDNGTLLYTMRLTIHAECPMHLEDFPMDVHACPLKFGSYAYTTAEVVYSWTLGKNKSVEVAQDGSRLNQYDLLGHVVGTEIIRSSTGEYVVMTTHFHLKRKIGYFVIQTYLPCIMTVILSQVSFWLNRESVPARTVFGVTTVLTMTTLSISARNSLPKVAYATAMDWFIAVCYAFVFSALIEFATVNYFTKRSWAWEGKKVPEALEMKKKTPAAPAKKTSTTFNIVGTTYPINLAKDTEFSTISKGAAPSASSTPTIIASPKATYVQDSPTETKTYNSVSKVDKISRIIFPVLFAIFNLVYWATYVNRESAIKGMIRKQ

[3] = biological target: T2, Gamma-aminobutyric acid receptor subunit alpha-1 (Homo sapiens, UniProt P14867); experiment: Binding affinity to human recombinant GABAA alpha1 receptor assessed as inhibition constant incubated for 1 hrs by liquid scintillation counting analysis
T2 sequence (P14867 whole entry): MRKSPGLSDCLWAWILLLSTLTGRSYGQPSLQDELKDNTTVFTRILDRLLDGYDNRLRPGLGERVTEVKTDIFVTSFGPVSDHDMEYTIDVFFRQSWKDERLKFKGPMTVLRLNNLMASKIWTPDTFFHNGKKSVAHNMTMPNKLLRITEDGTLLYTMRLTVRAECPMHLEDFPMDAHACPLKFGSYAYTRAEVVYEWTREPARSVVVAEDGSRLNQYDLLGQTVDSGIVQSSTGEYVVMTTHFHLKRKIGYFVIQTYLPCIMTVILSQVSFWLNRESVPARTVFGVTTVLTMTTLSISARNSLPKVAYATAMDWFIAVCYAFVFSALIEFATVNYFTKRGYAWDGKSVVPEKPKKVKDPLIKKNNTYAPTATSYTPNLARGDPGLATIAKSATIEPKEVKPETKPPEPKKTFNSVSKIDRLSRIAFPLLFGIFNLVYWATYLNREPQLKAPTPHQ

[4] = biological target: T3, Gamma-aminobutyric acid receptor subunit alpha-5 (Homo sapiens, UniProt P31644); experiment: Binding affinity to human recombinant GABAA alpha5 receptor assessed as inhibition constant incubated for 1 hrs by liquid scintillation counting analysis
T3 sequence (P31644 whole entry): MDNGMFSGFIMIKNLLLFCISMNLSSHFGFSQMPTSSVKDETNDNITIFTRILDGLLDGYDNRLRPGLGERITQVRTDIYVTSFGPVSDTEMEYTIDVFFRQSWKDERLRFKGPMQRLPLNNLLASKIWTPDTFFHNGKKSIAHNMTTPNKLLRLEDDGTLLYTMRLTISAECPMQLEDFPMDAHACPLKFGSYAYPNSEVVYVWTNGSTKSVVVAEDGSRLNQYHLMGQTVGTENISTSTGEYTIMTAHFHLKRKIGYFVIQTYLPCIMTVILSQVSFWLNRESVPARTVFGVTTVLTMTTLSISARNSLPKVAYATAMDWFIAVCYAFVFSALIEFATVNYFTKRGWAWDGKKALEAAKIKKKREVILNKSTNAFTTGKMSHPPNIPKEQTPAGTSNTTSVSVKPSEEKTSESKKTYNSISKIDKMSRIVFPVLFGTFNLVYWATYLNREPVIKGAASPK

[5] = biological target: GABA-A receptor; anion channel; experiment: Inhibition of GABAA receptor (unknown origin); assay type: protein-complex assay, Homo sapiens
[6] = biological target: T4, Gamma-aminobutyric acid receptor subunit alpha-2 (Homo sapiens, UniProt P47869); experiment: Binding affinity to human recombinant GABAA alpha2 receptor assessed as inhibition constant incubated for 1 hrs by liquid scintillation counting analysis
T4 sequence (P47869 whole entry): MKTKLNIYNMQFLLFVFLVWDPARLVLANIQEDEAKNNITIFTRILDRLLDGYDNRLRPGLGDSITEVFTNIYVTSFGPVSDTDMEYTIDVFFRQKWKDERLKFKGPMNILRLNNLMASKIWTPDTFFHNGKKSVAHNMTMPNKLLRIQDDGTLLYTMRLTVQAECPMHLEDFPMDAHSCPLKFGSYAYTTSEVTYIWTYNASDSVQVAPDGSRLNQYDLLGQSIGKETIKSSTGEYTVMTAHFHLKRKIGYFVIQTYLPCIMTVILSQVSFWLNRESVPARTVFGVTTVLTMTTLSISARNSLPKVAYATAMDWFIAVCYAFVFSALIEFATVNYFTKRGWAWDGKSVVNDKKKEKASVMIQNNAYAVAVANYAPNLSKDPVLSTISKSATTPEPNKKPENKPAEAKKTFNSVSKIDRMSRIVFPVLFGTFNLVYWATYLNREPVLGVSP

[7] = biological target: GABA-A receptor; anion channel; experiment: Displacement of [3H]flunitrazepam from GABAA (unknown origin ) receptor by radioligand binding assay; assay type: protein-complex assay, Homo sapiens
[8] = biological target: Gamma-aminobutyric acid receptor subunit alpha-4 (Homo sapiens, UniProt P48169); experiment: Binding affinity to human recombinant GABAA alpha4 receptor assessed as inhibition constant incubated for 1 hrs by liquid scintillation counting analysis
Sequence of Gamma-aminobutyric acid receptor subunit alpha-4 (P48169 whole entry): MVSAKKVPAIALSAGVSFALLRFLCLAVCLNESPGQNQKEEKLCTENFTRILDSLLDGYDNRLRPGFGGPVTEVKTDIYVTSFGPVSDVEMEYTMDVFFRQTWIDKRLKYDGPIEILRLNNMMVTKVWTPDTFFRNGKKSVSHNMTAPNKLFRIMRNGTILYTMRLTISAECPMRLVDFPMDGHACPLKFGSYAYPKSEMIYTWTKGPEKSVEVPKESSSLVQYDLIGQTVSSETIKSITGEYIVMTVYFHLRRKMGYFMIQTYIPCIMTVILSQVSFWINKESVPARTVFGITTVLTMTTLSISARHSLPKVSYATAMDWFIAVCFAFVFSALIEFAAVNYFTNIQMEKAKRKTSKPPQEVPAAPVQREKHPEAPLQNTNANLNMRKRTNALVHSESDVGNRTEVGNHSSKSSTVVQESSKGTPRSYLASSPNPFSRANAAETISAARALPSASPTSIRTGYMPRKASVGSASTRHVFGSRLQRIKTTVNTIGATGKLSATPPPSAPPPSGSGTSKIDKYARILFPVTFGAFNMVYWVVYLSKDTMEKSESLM

[9] = biological target: cGMP-specific 3',5'-cyclic phosphodiesterase (Homo sapiens, UniProt O76074); experiment: Binding affinity to PDE5 (unknown origin) assessed as inhibition constant
[10] = biological target: T5, Acetylcholinesterase (Homo sapiens, UniProt P22303); experiment: Inhibition of AChE (unknown origin) using acetylthiocholine iodide as substrate incubated for 20 mins followed by substrate addition by Ellman's method
T5 sequence (P22303 whole entry): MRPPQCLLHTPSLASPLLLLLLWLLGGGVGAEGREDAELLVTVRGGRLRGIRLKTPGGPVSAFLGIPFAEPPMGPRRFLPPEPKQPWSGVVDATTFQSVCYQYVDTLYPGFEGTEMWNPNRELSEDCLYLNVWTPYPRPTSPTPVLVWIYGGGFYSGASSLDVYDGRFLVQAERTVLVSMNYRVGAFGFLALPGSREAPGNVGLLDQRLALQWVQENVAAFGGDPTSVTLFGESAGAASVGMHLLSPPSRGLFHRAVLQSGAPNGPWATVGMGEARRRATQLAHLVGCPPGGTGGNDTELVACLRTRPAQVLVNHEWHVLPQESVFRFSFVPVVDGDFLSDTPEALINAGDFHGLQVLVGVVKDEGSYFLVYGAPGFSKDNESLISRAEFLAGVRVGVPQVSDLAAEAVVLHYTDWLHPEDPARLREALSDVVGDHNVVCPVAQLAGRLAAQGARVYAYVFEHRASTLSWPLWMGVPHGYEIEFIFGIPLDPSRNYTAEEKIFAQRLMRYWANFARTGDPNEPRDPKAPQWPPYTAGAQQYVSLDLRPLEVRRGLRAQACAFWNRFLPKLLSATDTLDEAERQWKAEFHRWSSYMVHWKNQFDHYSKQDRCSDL

[11] = biological target: T5, Acetylcholinesterase; experiment: Inhibition of AChE (unknown origin) incubated for 40 mins by Ellman's method
[12] = biological target: T6, Cholinesterase (Homo sapiens, UniProt P06276); experiment: Inhibition of BuChE (unknown origin)
T6 sequence (P06276 whole entry): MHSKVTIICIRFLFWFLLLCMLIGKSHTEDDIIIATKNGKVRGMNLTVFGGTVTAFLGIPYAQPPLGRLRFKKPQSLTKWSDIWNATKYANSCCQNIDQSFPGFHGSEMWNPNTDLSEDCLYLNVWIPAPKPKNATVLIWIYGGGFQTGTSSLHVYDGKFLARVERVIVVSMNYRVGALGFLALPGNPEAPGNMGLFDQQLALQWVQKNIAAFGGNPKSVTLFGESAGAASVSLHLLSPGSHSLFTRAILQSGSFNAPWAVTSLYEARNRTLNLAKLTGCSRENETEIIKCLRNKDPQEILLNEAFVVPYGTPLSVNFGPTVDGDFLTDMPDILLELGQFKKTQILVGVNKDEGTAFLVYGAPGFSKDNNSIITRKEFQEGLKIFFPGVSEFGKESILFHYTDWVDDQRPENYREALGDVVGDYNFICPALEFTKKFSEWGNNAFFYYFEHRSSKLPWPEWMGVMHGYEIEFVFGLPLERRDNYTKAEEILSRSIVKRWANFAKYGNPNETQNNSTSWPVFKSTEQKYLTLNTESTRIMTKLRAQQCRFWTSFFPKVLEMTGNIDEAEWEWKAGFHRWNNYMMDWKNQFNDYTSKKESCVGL

[13] = biological target: T5, Acetylcholinesterase; experiment: Inhibition of AChE (unknown origin)
[14] = biological target: T5, Acetylcholinesterase; experiment: Inhibition of AChE (unknown origin) by Ellman's method
[15] = biological target: T6, Cholinesterase; experiment: Inhibition of BuChE (unknown origin) using acetylthiocholine iodide as substrate incubated for 20 mins followed by substrate addition by Ellman's method

## COc1ccc2c(c1)[nH]c1c2ncc2[nH]c3ccccc3c21
[1]
  Ki: > 10000 nM
[2]
  Ki: 11 nM
[3]
  Ki: 3 nM
[4]
  Ki: 230 nM
[5]
  IC50: 4 nM
[6]
  Ki: 12 nM

## COCc1c(-c2cc(C)on2)ncc2[nH]c3ccc4oc(C(C)C)nc4c3c12
[5]
  IC50: 0.9 nM

## CC(C)(C)OC(=O)c1cc2c(cn1)[nH]c1ccccc12
[1]
  Ki: > 5000 nM
[2]
  Ki: 19 nM
[7]
  IC50: 1 nM
[3]
  Ki: 0.7 nM
[4]
  Ki: 110 nM
[6]
  Ki: 15 nM
[8]
  Ki: 1000 nM

## CCCOc1cc2c(cn1)[nH]c1ccccc12
[1]
  Ki: > 1000 nM
[2]
  Ki: 69 nM
[7]
  IC50: 3 nM
[4]
  Ki: 590 nM
[6]
  Ki: 52 nM
[8]
  Ki: 1000 nM

## COC(=O)c1cc2c(cn1)[nH]c1ccccc12 [BETA-CCM]
[1]
  Ki: 4400 nM
[2]
  Ki: 72 nM
[7]
  IC50: 1 nM
[3]
  Ki: 2 nM
[4]
  Ki: 44 nM
[6]
  Ki: 7 nM
[8]
  Ki: 1000 nM

## COCc1c(C(=O)OC(C)C)ncc2[nH]c3ccc4nccnc4c3c12
[5]
  IC50: 0.8 nM

## Nc1cccc(-c2ccc(C(=O)N3CCc4c([nH]c5ccccc45)C3c3ccc4c(c3)OCO4)o2)c1 (centres undefined)
[9]
  Ki: 51 nM

## C=C[C@H]1[C@@H](/C(=C/O)C(=O)OC)C[C@H]2c3[nH]c4ccccc4c3CCN2[C@H]1O[C@@H]1O[C@H](CO)[C@@H](O)[C@H](O)[C@H]1O
[10]
  IC50: 1900 nM

## O=[N+]([O-])c1ccc2[nH]c3cnc4c5ccccc5[nH]c4c3c2c1
[5]
  IC50: 4 nM

## Cn1c2ccccc2c2cc[n+](-c3ccc(Br)cc3)cc21
[11]
  IC50: 240 nM
[12]
  IC50: 32000 nM and 116000 nM

## COCc1c(C(=O)OC(C)C)ncc2[nH]c3ccc4oc(C(C)C)cc4c3c12
[5]
  IC50: 0.8 nM

## Cn1c2ccccc2c2cc[n+](-c3ccc(I)cc3)cc21
[11]
  IC50: 240 nM
[12]
  IC50: 32000 nM and 116000 nM
[13]
  IC50: 240 nM and 300 nM

## Cc1ccc2c(c1)c1cc[n+](-c3ccccc3)cc1n2C
[12]
  IC50: 17000 nM
[14]
  IC50: 420 nM
[13]
  IC50: 420 nM

## Clc1ccc2c(c1)[nH]c1c2ncc2[nH]c3ccccc3c21
[1]
  Ki: > 10000 nM
[2]
  Ki: 24 nM
[3]
  Ki: 4 nM
[4]
  Ki: 210 nM
[5]
  IC50: 4 nM
[6]
  Ki: 12 nM

## C#Cc1ccc2[nH]c3cnc(C(=O)OC(C)(C)C)cc3c2c1
[1]
  Ki: 2000 nM
[2]
  Ki: 100 nM
[3]
  Ki: 1 nM
[4]
  Ki: 210 nM
[8]
  Ki: 2000 nM

## Cc1ccc(-[n+]2ccc3c4ccccc4n(C)c3c2)cc1
[11]
  IC50: 240 nM
[12]
  IC50: 32000 nM and 116000 nM
[13]
  IC50: 290 nM and 300 nM

## C=C[C@H]1C[N+]2=C(C[C@@H]1/C(=C\OC)C(=O)OC)c1[nH]c3cccc(OC)c3c1CC2
[10]
  IC50: 4100 nM

## C[n+]1ccc2c(c1)[nH]c1ccccc12 [NORMELINONINE F]
[12]
  IC50: 800 nM
[14]
  IC50: 4100 nM

## CCOC(=O)[n+]1ccc2c([nH]c3cc(OC)ccc32)c1C
[12]
  IC50: 1500 nM
[14]
  IC50: 250 nM
[13]
  IC50: 250 nM

## O=C(CN1CCCCC1)Nc1ccc2nc3c4[nH]c5ccccc5c4ccn3c(=O)c2c1
[10]
  IC50: 10 nM
[15]
  IC50: 5400 nM

## Cc1ccc([N+]2=Cc3c(c4ccccc4n3C)CC2)cc1
[11]
  IC50: 1500 nM

## COCc1c(C(=O)OC(C)C)ncc2[nH]c3ccc4nc5c(nc4c3c12)CCCC5
[5]
  IC50: 0.8 nM

## O=C1c2ccccc2-[n+]2ccc3c([nH]c4ccccc43)c21 [FASCAPLYSIN]
[10]
  IC50: 1500 nM
[15]
  IC50: 90000 nM

## Cn1c2c(c3ccccc31)CC[N+](c1ccc(I)cc1)=C2
[11]
  IC50: 1500 nM

## Cn1c2c(c3ccccc31)CC[N+](c1ccc(Br)cc1)=C2
[11]
  IC50: 1500 nM

## c1ccc2c(c1)CN1CCc3c([nH]c4ccccc34)C1=N2
[10]
  IC50: 3400 nM
[15]
  IC50: 500 nM

## O=C(CCN1CCCC1)Nc1ccc2c(c1)CN1CCc3c([nH]c4ccccc34)C1=N2
[10]
  IC50: 29 nM
[15]
  IC50: 840 nM

## Cn1c2ccccc2c2cc[n+](-c3ccc(Br)cc3Br)cc21
[11]
  IC50: 110 nM
[14]
  IC50: 110 nM

## Brc1ccc2[nH]c3cnc4c5ccccc5[nH]c4c3c2c1
[5]
  IC50: 4 nM

## COC(=O)C1=CO[C@@H](C)[C@H]2C[n+]3ccc4c([nH]c5ccccc54)c3C[C@H]12
[10]
  IC50: 780 nM

## Cn1c2c(c3ccccc31)CC[N+](c1ccc(Br)cc1Br)=C2
[11]
  IC50: > 10000 nM

## COCc1c(C(=O)OC(C)C)ncc2[nH]c3ccc(OCc4ccccc4)cc3c12 [ABECARNIL]
[1]
  Ki: 6400 nM
[2]
  Ki: 4 nM
[7]
  IC50: 1 nM
[3]
  Ki: 1 nM
[4]
  Ki: 5 nM
[6]
  Ki: 2 nM
[8]
  Ki: 1200 nM

## CC(C)n1c2ccccc2c2cc[n+](-c3ccccc3)cc21
[12]
  IC50: 37000 nM
[14]
  IC50: 3100 nM
[13]
  IC50: 540 nM

## CCCCCCCNC(=O)Oc1ccc2c(c1)CN1CCc3c([nH]c4ccccc34)C1N2C (centres undefined)
[10]
  IC50: > 10000 nM
[15]
  IC50: 77 nM

## c1ccc(COc2ccc3c(c2)[nH]c2c3ncc3[nH]c4ccccc4c32)cc1
[5]
  IC50: > 4000 nM

## Cc1cc2cc3n(c(=O)c2cn1)CCc1c-3[nH]c2ccccc12
[10]
  IC50: 22000 nM
[15]
  IC50: 1000 nM

## CN1c2ccc(OCc3ccccc3)cc2C(=O)N2CCc3c([nH]c4ccccc34)C21 (centres undefined)
[10]
  IC50: 3000 nM
[15]
  IC50: 880 nM
